Like-named read-outs stand apart in the source and are kept apart here.
How the values were obtained:
COLO320DM cells = assay: COLO320DM proliferation assay; assay type: cell-based, human; details: read-out: COLO320DM Proliferation Abs IC50
Description: Various technologies can be utilized to assess technologies of the present disclosure. For example, in some embodiments, solubility, LogD, interactions with targets, etc. of various agents such as stapled peptides were assessed using technologies described in WO 2022/261257 (e.g., those in its Examples). In some embodiments, solubility, shake flask LogD, and binding to beta-catenin were assessed. In some embodiments, an assay for assessing interactions, e.g., with beta-catenin, was fluorescence polarization as described in WO 2022/261257. In some embodiments, an assay was Nano-BRET target engagement assay that assessed beta-catenin/TCF4 engagement as described in WO 2022/261257. In some embodiments, an assay was a reporter assay as reported in Example 4 of WO 2022/261257. In some embodiments, an assay was a COLO320DM proliferation assay as reported in Example 4 of WO 2022/261257.
Among other things, provided technologies can inhibit proliferation of various cells including various cancer cells. In some embodiments, provided technologies modulate WNT specific transcription. In some embodiments, provided technologies induce cell cycle arrest. In some embodiments, provided technologies induce G1 cell cycle arrest. In some embodiments, provided technologies increased proportion of cells in G1 phase of cell cycle. As confirmed in FIG. 3, provided technologies can inhibit proliferation of COLO320DM, which is a colorectal cell line comprising various mutations such as APC, TP53, etc., modulate WNT specific transcription such as of AXIN2 and CXCL12, and induce G1 cell cycle arrest. In some embodiments, it was confirmed that provided technologies can reduce proportion of cells in S phase of cell cycle.

DLD1 reporter = assay: reporter assay (DLD1 reporter assay); assay type: cell-based; details: read-out: DLD1 4% Abs IC50

Structure (SMILES): CCCC[C@@H]1NC(=O)[C@H](Cc2cccc(C(=O)O)c2)NC(=O)[C@H](CC(=O)O)NC(=O)C2(CCCC=CCCCOC(=O)N3CC[C@@]4(C3)NC(=O)[C@H](CCCCNC(=O)CC[C@@H](C(=O)N[C@@H](C)C(N)=O)NC(=O)[C@H](Cc3csc5ccccc35)NC(=O)[C@H](Cc3ccsc3)NC4=O)NC(=O)[C@H](Cc3ccccc3)NC(=O)[C@H](C)NC1=O)CCCC=CC[C@]1(CCCN1C(C)=O)C(=O)N[C@@H](CC(=O)O)C(=O)N[C@@H](CC(C)(C)C)C(=O)N2 (relative stereo) [I-70, Ac-PL3-Asp-Npg-B5-Asp-3COOHF-nLeu-Ala-Phe-Lys*3-PyrS2-3Thi-BztA-GlnR*3-Ala-NH2]
- IC50 (COLO320DM cells): ≤ 10 µM
- IC50 (DLD1 reporter; DLD1 4%): ≤ 1 µM

Structure (SMILES): CC(=O)N1CCC[C@]12CC=CCCCC1(CCCC=CCCCOC(=O)N3CC[C@@]4(C3)NC(=O)[C@H](CCCCNC(=O)CC[C@@H](C(=O)N[C@@H](CC(C)C)C(=O)N[C@@H](CO)C(N)=O)NC(=O)[C@H](Cc3csc5ccccc35)NC(=O)[C@H](Cc3ccccc3C(F)(F)F)NC4=O)NC(=O)[C@H](Cc3ccccc3)NC(=O)[C@H](C)NC(=O)C(C)(C)NC(=O)[C@H](Cc3cccc(C(=O)O)c3)NC(=O)[C@H](CC(=O)O)NC1=O)NC(=O)[C@H](CC(C)(C)C)NC(=O)[C@H](CC(=O)O)NC2=O (relative stereo) [I-138, Ac-PL3-Asp-Npg-B5-Asp-3COOHF-Aib-Ala-Phe-Lys*3-PyrS2-2F3MeF-BztA-GlnR*3-Leu-Ser-NH2]
- IC50 (COLO320DM cells): ≤ 10 µM
- IC50 (DLD1 reporter; DLD1 4%): ≤ 1 µM

Structure (SMILES): CC(=O)N1CCC[C@]12CC=CCCCC1(CCCC=CCCCOC(=O)N3CC[C@@]4(C3)NC(=O)[C@H](CCCCNC(=O)CC[C@@H](C(=O)N3CCC[C@H]3CO)NC(=O)[C@H](Cc3csc5ccccc35)NC(=O)[C@H](Cc3ccsc3)NC4=O)NC(=O)[C@H](Cc3ccccc3)NC(=O)[C@H](C)NC(=O)[C@H](C)NC(=O)[C@H](Cc3cccc(C(=O)O)c3)NC(=O)[C@H](CC(=O)O)NC1=O)NC(=O)[C@H](CC(C)(C)C)NC(=O)[C@H](CC(=O)O)NC2=O (relative stereo) [I-64, Ac-PL3-Asp-Npg-B5-Asp-3COOHF-Ala-Ala-Phe-Lys*3-PyrS2-3Thi-BztA-GlnR*3-Prool]
- IC50 (COLO320DM cells): 10 to 20 µM
- IC50 (DLD1 reporter; DLD1 4%): 1 to 5 µM

Structure (SMILES): CC(=O)N1CCC[C@]12CC=CCCCC1(CCCC=CCCCOC(=O)N3CC[C@@]4(C3)NC(=O)[C@H](CCCCn3cc(nn3)C[C@@H](C(=O)N[C@@H](C)C(N)=O)NC(=O)[C@H](Cc3csc5ccccc35)NC(=O)[C@H](Cc3ccsc3)NC4=O)NC(=O)[C@H](Cc3ccccc3)NC(=O)[C@H](C)NC(=O)C(C)(C)NC(=O)[C@H](Cc3cccc(C(=O)O)c3)NC(=O)[C@H](CC(=O)O)NC1=O)NC(=O)[C@H](CC(C)(C)C)NC(=O)[C@H](CC(=O)O)NC2=O (single isomer, unassigned) [I-335, Ac-PL3-Asp-Npg-B5-Asp-3COOHF-Aib-Ala-Phe-TriAzLys*3-PyrS2-3Thi-BztA-sAla*3-Ala-NH2]
- IC50 (COLO320DM cells): ≤ 10 µM
- IC50 (DLD1 reporter; DLD1 reporter, 4%): ≤ 1 µM

Structure (SMILES): CC(=O)N1CCC[C@]12CC=CCCCC1(CCCC=CCCCOC(=O)N3CC[C@@]4(C3)NC(=O)[C@H](CCCCNC(=O)CC[C@@H](C(=O)N[C@@H](C)C(N)=O)NC(=O)[C@H](Cc3csc5ccccc35)NC(=O)[C@H](Cc3ccccc3C(F)(F)F)NC4=O)NC(=O)[C@H](Cc3ccccc3)NC(=O)[C@H](C)NC(=O)C(C)(C)NC(=O)[C@H](Cc3cccc(C(=O)O)c3)NC(=O)[C@H](CC(=O)O)NC1=O)NC(=O)[C@H](CC(C)(C)C)NC(=O)[C@H](CC(=O)O)NC2=O (single isomer, unassigned) [I-69, Ac-PL3-Asp-Npg-B5-Asp-3COOHF-Aib-Ala-Phe-Lys*3-PyrS2-2F3MeF-BztA-GlnR*3-Ala-NH2]
- IC50 (COLO320DM cells): ≤ 10 µM
- IC50 (DLD1 reporter; DLD1 4%): ≤ 1 µM

Structure (SMILES): CC(=O)N1CCC[C@]12CC=CCCCC1(CCCC=CCCCOC(=O)N3CC[C@@]4(C3)NC(=O)[C@H](CCCCNC(=O)CC[C@@H](C(=O)N[C@@H](C)C(N)=O)NC(=O)[C@H](Cc3csc5ccccc35)NC(=O)[C@H](Cc3ccsc3)NC4=O)NC(=O)[C@H](Cc3ccccc3)NC(=O)[C@H](C)NC(=O)C(C)(C)NC(=O)[C@H](Cc3cccc(C(=O)O)c3)NC(=O)[C@H](CC(=O)O)NC1=O)NC(=O)[C@H](CCCN1CCOCC1)NC(=O)[C@H](CC(=O)O)NC2=O (relative stereo) [I-313, Ac-PL3-Asp-MorphNva-B5-Asp-3COOHF-Aib-Ala-Phe-Lys*3-PyrS2-3Thi-BztA-GlnR*3-Ala-NH2]
- IC50 (COLO320DM cells): > 20 µM

Structure (SMILES): CCCC[C@@H]1NC(=O)[C@H](CC(=O)O)NC(=O)[C@]2(CC=CCCCC3(CCCC=CCCCOC(=O)N4CC[C@@]5(C4)NC(=O)[C@H](CCCCNC(=O)CC[C@@H](C(=O)N[C@@H](C)C(N)=O)NC(=O)[C@H](Cc4csc6ccccc46)NC(=O)[C@H](Cc4ccsc4)NC5=O)NC(=O)[C@H](Cc4ccccc4)NC(=O)[C@H](C)NC(=O)C(C)(C)NC(=O)[C@H](Cc4cccc(C(=O)O)c4)NC(=O)[C@H](CC(=O)O)NC3=O)NC1=O)CCCN2C(C)=O (relative stereo) [I-245, Ac-PL3-Asp-nLeu-B5-Asp-3COOHF-Aib-Ala-Phe-Lys*3-PyrS2-3Thi-BztA-GlnR*3-Ala-NH2]
- IC50 (COLO320DM cells): ≤ 10 µM

Structure (SMILES): CC(=O)N1CCC[C@]12CC=CCCCC1(CCCC=CCCCOC(=O)N3CC[C@@]4(C3)NC(=O)[C@H](CCCCNC(=O)CC[C@@H](C(=O)N[C@@H](C)C(N)=O)NC(=O)[C@H](Cc3csc5ccccc35)NC(=O)[C@H](Cc3ccsc3)NC4=O)NC(=O)[C@H](Cc3ccccc3)NC(=O)[C@H](C)NC(=O)C(C)(C)NC(=O)[C@H](Cc3cccc(C(=O)O)c3)NC(=O)[C@H](CC(=O)O)NC1=O)NC(=O)[C@H](C)NC(=O)[C@H](CC(=O)O)NC2=O (relative stereo) [I-304, Ac-PL3-Asp-Ala-B5-Asp-3COOHF-Aib-Ala-Phe-Lys*3-PyrS2-3Thi-BztA-GlnR*3-Ala-NH2]
- IC50 (COLO320DM cells): ≤ 10 µM

Structure (SMILES): CC(=O)N1CCC[C@]12CC=CCCCC1(CCCC=CCCCOC(=O)N3CC[C@@]4(C3)NC(=O)[C@H](CCCCNC(=O)CC[C@@H](C(=O)N[C@@H](C)C(N)=O)NC(=O)[C@H](Cc3csc5ccccc35)NC(=O)[C@H](Cc3ccsc3)NC4=O)NC(=O)[C@H](Cc3ccccc3)NC(=O)[C@H](C)NC(=O)[C@H](Cc3ccccc3)NC(=O)[C@H](Cc3cccc(C(=O)O)c3)NC(=O)[C@H](CC(=O)O)NC1=O)NC(=O)[C@H](CC(C)(C)C)NC(=O)[C@H](CC(=O)O)NC2=O (relative stereo) [I-386, Ac-PL3-Asp-Npg-B5-Asp-3COOHF-Phe-Ala-Phe-Lys*3-PyrS2-3Thi-BztA-GlnR*3-Ala-NH2]
- IC50 (COLO320DM cells): > 20 µM

Structure (SMILES): CC(=O)N1CCC[C@@]1(C)C(=O)N[C@@H](CC(=O)O)C(=O)N[C@H](C(=O)N[C@]1(C)CCCCCCCCOC(=O)N2CC[C@@]3(C2)NC(=O)[C@H](CCCCNC(=O)CC[C@@H](C(=O)N[C@@H](C)C(N)=O)NC(=O)[C@H](Cc2csc4ccccc24)NC(=O)[C@H](Cc2ccsc2)NC3=O)NC(=O)[C@H](Cc2ccccc2)NC(=O)[C@H](C)NC(=O)C(C)(C)NC(=O)[C@H](Cc2cccc(C(=O)O)c2)NC(=O)[C@H](CC(=O)O)NC1=O)C(C)C (relative stereo) [I-237, Ac-MePro-Asp-Val-R5-Asp-3COOHF-Aib-Ala-Phe-Lys*3-PyrS2-3Thi-BztA-GlnR*3-Ala-NH2]
- IC50 (COLO320DM cells): > 20 µM

Structure (SMILES): CC(=O)N1CCC[C@]12CC=CCCCC1(CCCC=CCCCOC(=O)N3CC[C@@]4(C3)NC(=O)[C@H](CCCCNC(=O)CC[C@@H](C(=O)N[C@@H](C)C(N)=O)NC(=O)[C@H](Cc3csc5ccccc35)NC(=O)[C@H](Cc3ccncc3)NC4=O)NC(=O)[C@H](Cc3ccccc3)NC(=O)[C@H](C)NC(=O)C(C)(C)NC(=O)[C@H](Cc3cccc(C(=O)O)c3)NC(=O)[C@H](CC(=O)O)NC1=O)NC(=O)[C@H](CC(C)(C)C)NC(=O)[C@H](CC(=O)O)NC2=O (relative stereo) [I-301, Ac-PL3-Asp-Npg-B5-Asp-3COOHF-Aib-Ala-Phe-Lys*3-PyrS2-4PyrA-BztA-GlnR*3-Ala-NH2]
- IC50 (COLO320DM cells): > 20 µM

Structure (SMILES): CC(=O)N1CCC[C@]12CC=CCCCC1(CCCC=CCCCOC(=O)N3CC[C@@]4(C3)NC(=O)[C@H](CCCCNC(=O)CC[C@@H](C(=O)N[C@@H](C)C(N)=O)NC(=O)[C@H](Cc3csc5ccccc35)NC(=O)[C@H](Cc3cccnc3)NC4=O)NC(=O)[C@H](Cc3ccccc3)NC(=O)[C@H](C)NC(=O)C(C)(C)NC(=O)[C@H](Cc3cccc(C(=O)O)c3)NC(=O)[C@H](CC(=O)O)NC1=O)NC(=O)[C@H](CC(C)(C)C)NC(=O)[C@H](CC(=O)O)NC2=O (relative stereo) [I-300, Ac-PL3-Asp-Npg-B5-Asp-3COOHF-Aib-Ala-Phe-Lys*3-PyrS2-3PyrA-BztA-GlnR*3-Ala-NH2]
- IC50 (COLO320DM cells): > 20 µM

Structure (SMILES): CC(=O)N1CCC[C@]12CC=CCCCC1(CCCC=CCCCOC(=O)N3CC[C@@]4(C3)NC(=O)[C@H](CCCCNC(=O)CC[C@@H](C(=O)N[C@@H](C)C(N)=O)NC(=O)[C@H](Cc3csc5ccccc35)NC(=O)[C@H](Cc3ccccn3)NC4=O)NC(=O)[C@H](Cc3ccccc3)NC(=O)[C@H](C)NC(=O)C(C)(C)NC(=O)[C@H](Cc3cccc(C(=O)O)c3)NC(=O)[C@H](CC(=O)O)NC1=O)NC(=O)[C@H](CC(C)(C)C)NC(=O)[C@H](CC(=O)O)NC2=O (relative stereo) [I-299, Ac-PL3-Asp-Npg-B5-Asp-3COOHF-Aib-Ala-Phe-Lys*3-PyrS2-2PyrA-BztA-GlnR*3-Ala-NH2]
- IC50 (COLO320DM cells): 10 to 20 µM

Reference: patent publication US20260207704A1, “STAPLED PEPTIDES AND METHODS THEREOF” (priority 2022, published 2026)
